Columns and labels:
HN-85-1-3 cells = test: Growth inhibition of EGF-dependent HNSCC cell cultures; assay type: cell-based; settings: 3.2 μM, 72 h, RPMI+10% FBS; preliminary experiments
Procedure: HN-85-1-3 cells were cultured of 72 h in regular growth medium (RPMI+10% FBS) and containing 3.2 μM erlotinib or the indicated PSs. The cell density was photographically recorded at the beginning and end of the culture period. The cell-associated PSs were determined by fluorescence imaging.

UMUC3 tumors [1] = test: HPPH-PDT in combination with BCG, UMUC3 tumors; assay type: in vivo, mice; settings: HPPH 0.47 μmol/kg in combination with BCG (1-1.5×10^6 CFU SQ weekly×3); 135 J/cm^2, 75 mW/cm^2 at 6 h
Procedure: For details see the text.
One hour after the PDT treatment, BCG was injected (1-1.5×10^6 CFU), SQ weekly×3 doses, and the day 30 data summarized in FIG. 11, are very encouraging.

ABCG2 [2] = target: T1, ABCG2 (Homo sapiens, UniProt Q9UNQ0); test: In vitro PDT efficacy with/without Gleevec (MTT), UMUC3; assay type: cell-based; settings: UMUC3 cells
T1 construct: endogenous in cells; host or cells: UMUC3 bladder cancer cells
T1 sequence (Q9UNQ0 1-655): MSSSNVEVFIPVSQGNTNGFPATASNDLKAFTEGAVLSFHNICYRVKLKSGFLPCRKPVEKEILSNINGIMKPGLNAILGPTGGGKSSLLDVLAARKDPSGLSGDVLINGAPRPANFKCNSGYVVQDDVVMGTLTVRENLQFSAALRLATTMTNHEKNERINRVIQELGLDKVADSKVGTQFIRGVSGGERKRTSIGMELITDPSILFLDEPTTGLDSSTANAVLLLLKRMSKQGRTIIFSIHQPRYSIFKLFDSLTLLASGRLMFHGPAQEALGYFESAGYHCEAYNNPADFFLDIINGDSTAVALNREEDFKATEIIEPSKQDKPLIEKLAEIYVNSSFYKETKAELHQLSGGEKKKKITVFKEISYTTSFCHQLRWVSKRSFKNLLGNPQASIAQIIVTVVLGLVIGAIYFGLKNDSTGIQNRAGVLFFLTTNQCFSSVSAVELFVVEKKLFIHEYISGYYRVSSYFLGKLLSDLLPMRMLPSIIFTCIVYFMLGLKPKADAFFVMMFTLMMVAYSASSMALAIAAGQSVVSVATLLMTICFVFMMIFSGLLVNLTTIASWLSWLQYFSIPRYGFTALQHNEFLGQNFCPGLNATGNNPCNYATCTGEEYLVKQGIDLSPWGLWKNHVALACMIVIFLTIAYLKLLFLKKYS
Description: (§1) C1e. In contrast to PS 1 and 2, the PS- erlotinib conjugate 3 is not the substrate of ABCG2: The influence of PS as substrate for ABCG2 transport was observed by fluorescent microscopy. […] This information is very interesting as it could help to select an effective treatment option to cancer patients with and without expression of ABCG2 transporter.

UMUC3 tumors [3] = test: In vivo uptake in tumor, liver and skin (IVIS), UMUC3 tumors; design: species or system SCID mice; settings: UMUC3 tumor model; 0.47 μmol/kg
Procedure: C1i. PS with and without erlotinib show high tumor-uptake and significant difference in their pharmacokinetic profiles in UMUC3 and T24 tumors implanted in SCID mice: The SCID mice bearing either UMUC3 or T24 tumors (4-5 mm size) were injected with the PS 30, and the corresponding erlotinib conjugates 6, 34 & 39 with and without iodine functionality. Among the iodinated analogs, the iodobenzyl group was introduced either at the bottom half of 5 or top half of the molecule 39, and were converted into the corresponding radioactive (^124I-) analogs for PET imaging. The non-radioactive analogs were injected in tumored mice (3 mice/group) at a dose of 0.47 μmol/kg), and the mice were imaged at regular time intervals. The dose was selected on the basis of the therapeutic dose of HPPH. The uptake of tumor, liver and skin was measured by IVIS system (3 mice group), and interesting pharmacokinetic profiles of the PS were observed (FIG. 8).
C1j. […] Therefore, the tumors were exposed to light at their optimal uptake time points respectively.

ABCG2 [4] = test: ABCG2 substrate specificity: PS uptake with/without Gleevec, T24; assay type: cell-based; settings: T24 cells (lack ABCG2); PS 500 nM; Gleevec 5 μM; fluorescence
Description: (§2) T24 cells lack ABCG2 expression.
as §1

ABCG2 [5] = target: T1, ABCG2; test: ABCG2 substrate specificity: PS uptake with/without Gleevec, UMUC3; assay type: cell-based; settings: UMUC3 cells; PS 500 nM; Gleevec 5 μM; fluorescence
Description: as §2, §1

HNSCC cells = test: 3-D co-culture of HN-85-1-3 and tumor stromal cells; assay type: cell-based; settings: 1600 nM, 24 h, then 48 h in medium
Procedure: The cells were washed free of PS and incubated for additional 48 h in medium. The fluorescence for CSFE stromal cells and PS fluorescence was recorded in an inverted fluorescent microscope.
The tumor specificity of the compounds was also confirmed in head & neck cancer using 3D culture system.

Compound	growth inhibition (HN-85-1-3 cells)	long-term cure compared to HPPH-PDT alone (UMUC3 tumors [1])	substrate of ABCG2 (ABCG2 [2])	PDT efficacy with and without Gleevec (ABCG2 [2]; MTT assay)	time of optimal/maximum tumor uptake post-injection (UMUC3 tumors [3]) [h]	uptake of PS on addition of Gleevec (ABCG2 [4])	uptake of PS on addition of Gleevec (ABCG2 [5])	retention by HNSCC cells in 3-D co-culture (HNSCC cells)
C#Cc1cccc(Nc2ncnc3cc(OCCOC)c(OCCOC)cc23)c1 [erlotinib]	cytostatic action	–	–	–	–	–	–	–
CCCCCCOC(C)c1c(C)c2cc3nc(c4c5[nH]c(cc6nc(cc1[nH]2)C(C)=C6CC)c(C)c5C(=O)C4)[C@@H](CCC(=O)O)[C@@H]3C (some centres unmarked) [HPPH, 2-(1-Hexyloxyethyl)-2-devinyl pyropheophorbide-a]	–	improved long-term cure	substrates of ABCG2	enhancement of PDT efficacy	24	did not show any significant increase	significantly increased	low retention

From patent US11083793B2, “Epidermal growth factor receptor (EGFR) targeted photosensitizers” (Health Research, Inc., priority 2016, dated 2021)
